Legend:
[1] = Storage properties (standard tests, not described); assay type: physicochemical; conditions: salt forms
[2] = Bioavailability (tests not described); assay type: in vivo; conditions: salt forms
[3] = system: dengue virus serotype 2 strain New Guinea C; test: Cell-based flavivirus immunodetection (CFI) assay; conditions: for EC50: Dengue virus, A549, read-out: EC50 in the CFI assay for dengue virus
Description: (§1) The CFI assay is based on quantitative immunodetection of the viral envelope protein, E, as a readout for viral load in target cells. In the CFI assay, the compounds of the invention show activity against dengue virus (e.g. dengue virus serotype 2). […] The HCV replicon contains an inserted firefly luciferase construct in its sequence. The genome of the HCV replicon is maintained as RNA species in a Huh-7 cell line (Krieger et al. Journal of Virology 2001; 75(10):4614-24). Measurement of luciferase activity is used as a surrogate marker for viremia in target cells.
50% effective concentration (EC50), is the concentration of the test compound that decreases the signal generated by the virus by 50%. It is calculated using nonlinear regression analysis using the variable slope sigmoidal dose-response curve, with commercial software such as Prism or ActivityBase.
A549 cells (e.g. available from ATCC #CCL-185) are trypsinized, counted and diluted to 2×10^5 cells/ml in Hams F-12 media supplemented with 2% fetal bovine serum and 1% penicillin/streptomycin. 2×10^4 cells are dispensed in clear 96-well tissue culture plate per well and placed at 37° C., 5% CO2 overnight. On the next day, the cells are infected with virus (dengue serotype 2, NGC strain, e.g. available from ATCC #VR-1584) at multiplicity of infection (MOI) of 0.3 in the presence of varied concentrations of test compounds for 1 hour at 37° C. and 5% CO2 in the same media. The medium containing virus and the compounds is removed, replaced with fresh medium containing only the test compounds and incubated at 37° C., 5% CO2 for another 48 hours. The cells are washed once with PBS and fixed with cold methanol for 10 min. After washing twice with PBS, the fixed cells are blocked with PBS containing 1% FBS and 0.05% Tween-20 for 1 hour at room temperature. The primary antibody solution (4G2) is then added at a concentration of 1:20 to 1:100 in PBS containing 1% FBS and 0.05% Tween-20 for 3 hours. The cells are then washed three times with PBS followed by one hour incubation with horseradish peroxidase (HRP)-conjugated anti-mouse IgG (Sigma, 1:2000 dilution). After washing three times with PBS, 50 μL of 3,3′,5,5′-tetramethylbenzidine (TMB) substrate solution (Sigma) is added to each well for two minutes. The reaction is stopped by addition 0.5M sulfuric acid. The plates are read at 450 nm absorbance for viral load quantification. After measurement, the cells are washed three times with PBS, followed by incubation with propidium iodide for 5 min. The plate is read in a Tecan Safire plate reader (excitation 537 nm, emission 617 nm) for cell number quantification. Dose response curves are plotted from the mean absorbance versus the log of the concentration of test compounds. The EC50 is calculated by nonlinear regression analysis. A positive control may be used, such as, for example, (2R,3R,4R,5R)-2-(4-amino-pyrrolo[2,3-d]pyrimidin-7-yl)-3-ethynyl-5-hydroxymethyl-tetrahydrofuran-3,4-diol.

TSV01 dengue virus 2 = test: Mouse model of dengue virus infection (viremia by plaque assay); assay type: in vivo, AG129 mice
Description: The compounds of the invention also show activity in vivo in a mouse model of dengue infection (Schul et al. Journal of Infectious Diseases 2007; 195:665-74). Briefly, AG129 mice (B&K Universal Ltd, Hull, UK) are housed in individually ventilated cages (TechniPlast, Italy) and used between 6 and 10 weeks of age. Mice are injected intraperitoneally with 0.6 ml TSV01 dengue virus 2 suspension. Blood samples are taken by retro orbital puncture under isoflurane anaesthesia. Blood samples are collected in tubes containing sodium citrate to a final concentration of 0.4%, and immediately centrifuged for 3 minutes at 6000 g to obtain plasma. 20 μL of plasma is diluted in 780 μL RPMI1640 medium and snap frozen in liquid nitrogen for plaque assay analysis. Remaining plasma is used for cytokine and NS1 protein level determination. Mice develop dengue viremia rising over several days, peaking on day 3 post-infection.
For testing of antiviral activity, a compound of the invention is dissolved in vehicle fluid, e.g. 10% ethanol, 30% PEG 300 and 60% D5W (5% dextrose in water); or 6N HCl (1.5 eq): 1N
NaOH (pH adjusted to 3.5): 100 mM citrate buffer pH 3.5 (0.9% v/v: 2.5% v/v: 96.6% v/v). Thirty six 6-10 week old AG129 mice are divided into six groups of six mice each. All mice are infected with dengue virus as described above (day 0). Group 1 is dosed by oral gavage of 200 μL/mouse with 13 mg/kg of a compound of the invention twice a day (once early in the morning and once late in the afternoon) for three consecutive days starting on day 0 (first dose just before dengue infection). […] Thus, Groups 1 and 2 are dosed with a compound of the invention at 13 mg/kg and 32 mg/kg respectively, and Groups 3 and 4 are dosed with another compound of the invention at 13 mg/kg and 32 mg/kg respectively. A positive control may be used, such as, e.g., (2R,3R,4R,5R)-2-(4-amino-pyrrolo[2,3-d]pyrimidin-7-yl)-3-ethynyl-5-hydroxymethyl-tetrahydrofuran-3,4-diol, dosed by oral gavage of 200 μL/mouse the same way as the previous groups. A further group is treated with only vehicle fluid.
On day 3 post-infection approximately 100 μL blood samples, anti-coagulated with sodium citrate, are taken from the mice by retro-orbital puncture under isoflurane anaesthesia. Plasma is obtained from each blood sample by centrifugation and snap frozen in liquid nitrogen for plaque assay analysis. The collected plasma samples are analyzed by plaque assay as described in Schul et al. Journal of Infectious Diseases 2007; 195:665-74. Cytokines are also analysed as described in Schul et al. Journal of Infectious Diseases 2007; 195:665-74. NS1 protein levels are analysed using a Platelia® kit (BioRad Laboratories). An anti-viral effect is indicated by a reduction in cytokine levels and/or NS1 protein levels.

HCV replicon = test: Cell-based HCV replicon assay (Huh-luc/neo-ET, luciferase); parameters: species or system Hepatitis C virus; conditions: for EC50: Hepatitis C virus, Huh-7 cell line, luciferase readout
Description: as §1
HVC replicon-containing cells, Huh-luc/neo-ET (e.g. as described in Krieger et al., Journal of Virology, 2001; 75(10):4614-24), are maintained in DMEM medium containing 2 mM […], 0.1 mM non-essential amino acid solution, 10% heat-inactivated fetal bovine serum and […] Geneticin®, G418 sulfate solution. The cells are kept between 20 to 80% confluency and are trypsinized with trypsin (0.05%)/EDTA solution. After trypsinization, cells are resuspended in supplemented DMEM phenol red-free medium (DMEM phenol red free supplemented with 2 mM L-glutamine, 0.1 mM non-essential amino acid solution, 10% of heat-inactivated fetal bovine serum and 1 mM sodium pyruvate) and pelleted by centrifugation at 420 g for 5 min. Cell density is calculated and diluted to 1×10^5 cells/mL with phenol red-free medium.
Two sets of plates are prepared, a white opaque 96-well plate for the luciferase reading and a 96-well clear plate for cytotoxicity measurement. Each well is seeded with 10,000 cells/well and incubated overnight at 37° C., 5% CO2. After incubation, the medium is aspirated and phenol red free medium supplemented with various concentrations of compounds is added and the plates further incubated for at 37° C., 5% CO2 for another 48 hours. A positive control may be used, such as, for example, (2R,3R,4R,5R)-2-(4-amino-pyrrolo[2,3-d]pyrimidin-7-yl)-3-ethynyl-5-hydroxymethyl-tetrahydrofuran-3,4-diol.
For determination of luciferase activity, the plates are removed from the incubator to allow them to equilibrate to room temperature for 30 minutes and luciferase activity is measured after the addition of 100 μL of the Britelite® (PerKin Elmer) prepared according to manufacturer's instructions.

[4] = 32 mg/kg bid, oral gavage, 3 days, AG129 mice

Compound	storage properties (in words) [1]	bioavailability (in words) [2]	activity in the CFI assay (in words) [3]	EC50 [3]	reduction in viremia (TSV01 dengue virus 2; 25 mg/kg, mouse model of dengue virus infection)	activity in vivo in a mouse model of dengue virus infection (in words) (TSV01 dengue virus 2)	activity in the HCV replicon assay (in words) (HCV replicon)	EC50 (HCV replicon)	reduction in viremia (TSV01 dengue virus 2; [4])
C#C[C@@]1(O)[C@H](O)[C@@H](CO)O[C@H]1n1ccc2c(N)ncnc21.C#C[C@@]1(O)[C@H](O)[C@@H](CO)O[C@H]1n1ccc2c(N)ncnc21.O=S(=O)(O)c1cccc2c(S(=O)(=O)O)cccc12 [(2R,3R,4R,5R)-2-(4-amino-pyrrolo[2,3-d]pyrimidin-7-yl)-3-ethynyl-5-hydroxymethyl-tetrahydrofuran-3,4-diol napadisylate 2:1 salt]	good storage properties	good bioavailability	–	–	–	–	–	–	–
C#C[C@@]1(O)[C@H](OC(=O)C(C)C)[C@@H](COC(=O)C(C)C)O[C@H]1n1cc(C(N)=O)c2c(N)ncnc21 [Compound 10, Isobutyric acid (2R,3R,4R,5R)-5-(4-amino-5-carbamoyl-pyrrolo[2,3-d]pyrimidin-7-yl)-4-ethynyl-4-hydroxy-2-isobutyryloxymethyl-tetrahydro-furan-3-yl ester]	–	–	exhibit activity	~440 nM	about 30 fold	exhibit activity	exhibit activity	~35 nM	–
(2R,3R,4R,5R)-2-(4-amino-pyrrolo[2,3-d]pyrimidin-7-yl)-3-ethynyl-5-hydroxymethyl-tetrahydrofuran-3,4-diol salicylate salt	good storage properties	good bioavailability	–	–	–	–	–	–	–
C#C[C@@]1(O)[C@H](OC(=O)C(C)C)[C@@H](CO)O[C@H]1n1ccc2c(N)ncnc21 [Compound 4, Isobutyric acid (2R,3R,4R,5R)-5-(4-amino-pyrrolo[2,3-d]pyrimidin-7-yl)-4-ethynyl-4-hydroxy-2-hydroxymethyl-tetrahydro-furan-3-yl ester]	–	–	exhibit activity	~318 nM	–	exhibit activity	exhibit activity	–	about 113 fold
C#C[C@@]1(O)[C@H](OC(=O)[C@@H](N)C(C)C)[C@@H](CO)O[C@H]1n1ccc2c(N)ncnc21 [Compound 3, (S)-2-Amino-3-methyl-butyric acid (2R,3R,4R,5R)-5-(4-amino-pyrrolo[2,3-d]pyrimidin-7-yl)-4-ethynyl-4-hydroxy-2-hydroxymethyl-tetrahydro-furan-3-yl ester]	–	–	exhibit activity	~860 nM	–	exhibit activity	exhibit activity	~66 nM	about 45 fold
